# Test system: XTGAGCTCA
# Test: Dangling-end thermal denaturation, sequence XTGAGCTCA (Table 2)
# Assay type: physicochemical
# Conditions: not given
# Description: (§1) The dangling-end experimental method was utilized to evaluate the ability of the fluorinated aromatic base analogues to stabilize DNA duplexes when substituted directly adjacent to the helix. The relative stabilizations were measured by comparison of the energetics for helix—coil melting transition of the “core “duplex (lacking any “dangling “nucleotide) to that containing the extra nucleotide. Five short self-complementary sequence contexts were used; the sequences were chosen because they had been shown previously to be well-behaved thermodynamically in the dangling-end configuration. Data from two of the contexts are shown in Table 1, and data for the remaining three show similar trends. By use of these five contexts we were able to compare stacking effects of the base analogues with all four neighboring DNA bases in the helix.
# (§2) Methods for thermodynamic measurements. Thermal denaturation. […] Solutions were then heated to 90° C. for 5 minutes and annealed by slowly cooling to room temperature and then to 0° C.
row,Compound,G stacking
1,"OC[C@H]1O[C@@H](c2c(F)cc(F)cc2F)C[C@@H]1O [2,4,6-trifluorophenyl, 1′,2′-dideoxy-β-1′-(2,4,6-trifluorophenyl)-D-ribofuranose]",1.3

# Same assay, conditions: marker c
Compound,−G37,−H,−S
"OC[C@H]1O[C@@H](c2c(F)cc(F)cc2F)C[C@@H]1O [2,4,6-trifluorophenyl, 1′,2′-dideoxy-β-1′-(2,4,6-trifluorophenyl)-D-ribofuranose]",8.8 kcal,46.7 kcal,122 eu

# Same assay, conditions: marker d
row,Compound,−G37
1,"OC[C@H]1O[C@@H](c2c(F)cc(F)cc2F)C[C@@H]1O [2,4,6-trifluorophenyl, 1′,2′-dideoxy-β-1′-(2,4,6-trifluorophenyl)-D-ribofuranose]",9.0 kcal

# Test system: (dCGCGCG)2 core duplex
# Test: Dangling-end thermal denaturation, sequence XCGCGCG (Table 1)
# Assay type: physicochemical
# Conditions: 2,4,6- vs 2,4,5-substituted case
# Description: (§3) The dangling-end experimental method was utilized to evaluate the ability of the fluorinated aromatic base analogues to stabilize DNA duplexes when substituted directly adjacent to the helix. The relative stabilizations were measured by comparison of the energetics for helix-coil melting transition of the “core “duplex (lacking any “dangling “nucleotide) to that containing the extra nucleotide. Five short self-complementary sequence contexts were used; the sequences were chosen because they had been shown previously to be well-behaved thermodynamically in the dangling-end configuration. Data from two of the contexts are shown in Table 1, and data for the remaining three show similar trends. By use of these five contexts we were able to compare stacking effects of the base analogues with all four neighboring DNA bases in the helix. Methods for thermodynamic measurements. Thermal denaturation. […] Solutions were then heated to 90° C. for 5 minutes and annealed by slowly cooling to room temperature and then to 0° C. […] Calculations.
Compound,change in Tm stabilization on moving one fluorine from ortho to meta position,change in stabilization free energy on moving one fluorine from ortho to meta position
"OC[C@H]1O[C@@H](c2c(F)cc(F)cc2F)C[C@@H]1O [2,4,6-trifluorophenyl, 1′,2′-dideoxy-β-1′-(2,4,6-trifluorophenyl)-D-ribofuranose]",6.8,1.6 kcal

# Same assay, conditions: XCGCGCG; 1 M NaCl, 10 mM sodium phosphate pH 7.0; 5.0 μM DNA-strand
row,Compound,Tm
1,"OC[C@H]1O[C@@H](c2c(F)cc(F)cc2F)C[C@@H]1O [2,4,6-trifluorophenyl, 1′,2′-dideoxy-β-1′-(2,4,6-trifluorophenyl)-D-ribofuranose]",45.3 °C

# Same assay, conditions: XCGCGCG; Van't Hoff plots
Compound,−ΔG37,−ΔH,−ΔS
"OC[C@H]1O[C@@H](c2c(F)cc(F)cc2F)C[C@@H]1O [2,4,6-trifluorophenyl, 1′,2′-dideoxy-β-1′-(2,4,6-trifluorophenyl)-D-ribofuranose]",8.4 ± 0.2 kcal,37.3 kcal,104 eu

# Same assay, conditions: XCGCGCG; average from fits to individual melting curves
row,Compound,−ΔG37
1,"OC[C@H]1O[C@@H](c2c(F)cc(F)cc2F)C[C@@H]1O [2,4,6-trifluorophenyl, 1′,2′-dideoxy-β-1′-(2,4,6-trifluorophenyl)-D-ribofuranose]",8.6 ± 0.1 kcal

# Same assay, conditions: XCGCGCG; difference from core duplex
row,Compound,ΔΔG stacking
1,"OC[C@H]1O[C@@H](c2c(F)cc(F)cc2F)C[C@@H]1O [2,4,6-trifluorophenyl, 1′,2′-dideoxy-β-1′-(2,4,6-trifluorophenyl)-D-ribofuranose]",0.4 ± 0.1

# Same assay, conditions: XCGCGCG; vs core duplex
row,Compound,ΔTm
1,"OC[C@H]1O[C@@H](c2c(F)cc(F)cc2F)C[C@@H]1O [2,4,6-trifluorophenyl, 1′,2′-dideoxy-β-1′-(2,4,6-trifluorophenyl)-D-ribofuranose]",4.0 °C

# Test system: XGTAGCTAC
# Test: Dangling-end thermal denaturation, sequence XGTAGCTAC (Table 2)
# Assay type: physicochemical
# Conditions: marker c
# Description: as §1, §2
Compound,−G37,−H,−S
"OC[C@H]1O[C@@H](c2c(F)cc(F)cc2F)C[C@@H]1O [2,4,6-trifluorophenyl, 1′,2′-dideoxy-β-1′-(2,4,6-trifluorophenyl)-D-ribofuranose]",8.4 kcal,52.5 kcal,142 eu

# Test system: XACAGCTGT
# Test: Dangling-end thermal denaturation, sequence XACAGCTGT (Table 1)
# Assay type: physicochemical
# Conditions: 1 M NaCl, 10 mM sodium phosphate pH 7.0, 5.0 μM DNA-strand
# Description: as §3
row,Compound,Tm
1,"OC[C@H]1O[C@@H](c2c(F)cc(F)cc2F)C[C@@H]1O [2,4,6-trifluorophenyl, 1′,2′-dideoxy-β-1′-(2,4,6-trifluorophenyl)-D-ribofuranose]",47.8 °C

# Same assay, conditions: Van't Hoff plots
Compound,−ΔG37,−ΔH,−ΔS
"OC[C@H]1O[C@@H](c2c(F)cc(F)cc2F)C[C@@H]1O [2,4,6-trifluorophenyl, 1′,2′-dideoxy-β-1′-(2,4,6-trifluorophenyl)-D-ribofuranose]",9.3 ± 0.2 kcal,53.6 kcal,143 eu

# Same assay, conditions: average from fits to individual melting curves
row,Compound,−ΔG37
1,"OC[C@H]1O[C@@H](c2c(F)cc(F)cc2F)C[C@@H]1O [2,4,6-trifluorophenyl, 1′,2′-dideoxy-β-1′-(2,4,6-trifluorophenyl)-D-ribofuranose]",9.4 ± 0.2 kcal

# Same assay, conditions: difference from core duplex
row,Compound,ΔΔG stacking
1,"OC[C@H]1O[C@@H](c2c(F)cc(F)cc2F)C[C@@H]1O [2,4,6-trifluorophenyl, 1′,2′-dideoxy-β-1′-(2,4,6-trifluorophenyl)-D-ribofuranose]",1.3 ± 0.2

# Same assay, conditions: vs core duplex
row,Compound,ΔTm
1,"OC[C@H]1O[C@@H](c2c(F)cc(F)cc2F)C[C@@H]1O [2,4,6-trifluorophenyl, 1′,2′-dideoxy-β-1′-(2,4,6-trifluorophenyl)-D-ribofuranose]",7.9 °C

# — patent US20060154889A1, “Polyfluorinated nucleoside analogs and methods of use thereof” (priority 2004, published 2006)
